As usually defined, the IC50 is the point on the concentration scale where inhibition reaches its midpoint.

We go through five compounds from article PMC9867241, “Antioxidant and Cytotoxic Activity of New Polyphenolic Derivatives of Quinazolin-4(3H)-one: Synthesis and In Vitro Activities Evaluation” (Pharmaceutics, 2022).

Test [1] in a line: ABTS˙+ radical scavenging assay. The protocol: (§1) The stock solutions (1 mg/mL) of the tested compounds and the controls were obtained, by dissolving the substances in dimethyl sulfoxide (DMSO). Using Jasco V-530, an UV-VIS spectrophotometer (Jasco International Co., Ltd., Tokyo, Japan), we performed the colorimetric determinations in low-volume single-use 10 mm width cuvettes.
(§2) The assays were performed in triplicate and the results are presented as averages for each assay.

Test [2] in a line: DPPH˙ radical scavenging assay. Here is the method:
as §1, §2
The DPPH˙ radical scavenging assay is based on the transfer of one hydrogen from the analyzed compound to the violet stable free radical DPPH˙ (2,2-diphenyl-1-picrylhydrazyl), as we convert it into a yellow compound. The absorbance of the reagent mixed with samples presented inversely proportional values to the amount of DPPH˙ neutralized. The absorbance of the reagent was measured at λ = 517 nm, according to our previous reports. The assay was made in the presence of various concentrations of samples. The used protocol is based on the report of Brand-Williams et al..
In general terms: DPPH is a stable violet radical that fades when it is reduced.

Test [3] has as its system A549 (lung adenocarcinoma) cells. In words: Cytotoxicity, Alamar blue assay, A549 cells. The format is cell-based. Conditions: Homo sapiens, 24 h exposure. An excerpt:
(§3) Normal human foreskin (BJ) fibroblasts and two types of cancer cells, namely A549 (lung adenocarcinoma) and LNCaP (prostate carcinoma) purchased from American Type Culture Collection (Manassas, VA, USA), were used in the experiments. Each cell line was maintained in a different culture medium, depending on the metabolic necessities of the cells. BJ cells were maintained in Dulbecco’s modified Eagle’s medium (DMEM) with low glucose. A549 cells were maintained in DMEM with high glucose […], while LNCaP cells were grown in Roswell Park Memorial Institute (RPMI) 1640 medium with high glucose (5 g/L). All media used were supplemented with 10% fetal bovine serum (FBS) and were refreshed every two days. Cells were used in experiments or subcultured when they reached 70–80% confluence.
(§4) In 100 µL in 96-well plates, a number of 30,000 LNCaP cells, 15,000 A549 cells, and 7500 normal (BJ) cells were seeded. Because the cells have different sizes and volumes, the purpose of the different seedings was to achieve a confluency of 70–80% after 24 h. All types of cells were further exposed to the synthesized compounds (5a–d and 6a–d) for 24 h, at a concentration ranging from 12.5 to 100 µg/mL. Post-exposure, the media were removed, and the cells were washed with phosphate buffer saline (PBS). Their viability was evaluated using Alamar blue (AB) assay as previously described. Briefly, the cells were incubated with a 200 µM resazurin solution for 4 h. Using a Synergy 2 multi-mode microplate reader, we measured the fluorescence. The measurement was performed at λexcitation = 530/25 nm; λemission = 590/35 nm. We conducted the experiments using three biological replicates, each one including 6 technical replicates. As negative controls (NC), cells exposed to culture medium containing 0.2% DMSO were used. Compared to the NC (100%), the results were expressed as relative values. We used IC50 values for the potency evaluation, and calculated them for each cell line, using the dose-effect curves obtained by fitting the experimental data with a 4-parameter logistic curve.
(§5) Mean values ± standard deviation (SD) values of at least three biological replicates were used to calculate experimental data. One-way analysis of variance (ANOVA) with a post hoc Holm–Sidak test was used to statistically examine the data. Using SigmaPlot 11.0 software (Systat, Software Inc., Chicago, IL, USA), we performed the graphical display and data analysis. From a statistical point of view, the results were considered different, at values of p < 0.05.
In general terms: Resazurin is reduced to fluorescent resorufin, in cell work by metabolically active cells.

Test [4] deals with LNCaP (prostate carcinoma) cells. Nature of the test: Cytotoxicity, Alamar blue assay, LNCaP cells. The format is cell-based. Conditions: Homo sapiens, 24 h exposure.
Text: as §3, §4, §5

The subject of test [5] is normal human foreskin fibroblasts (BJ). Nature of the test: Cytotoxicity, Alamar blue assay, BJ cells. Conditions: Homo sapiens, Fibroblast; 24 h exposure, Alamar blue. Type of test: cell-based.
Text: as §3, §4, §5

Test [6] can be described thus: Fe^2+ chelation assay (ferrozine competition). The protocol:
In the protocol used for evaluating the Fe^2+ chelating ability of the compounds, the absorbances of the solutions were determined at λ = 562 nm, against a blank sample. The method was adapted from the initial report of Benzie and Strain et al., which was previously reported by our group. Using Equation (5), we calculated the iron chelation capacities of the 5a–d and 6a–d compounds:(5) iron chelation (%)=control absorbance−sample absorbance/control absorbance×100
The chelating capacity of the tested compounds of Fe^2+ was evaluated based on their competition for Fe^2+ with ferrozine.

A short description of test [7]: Cu^2+ chelation assay (murexide competition). An excerpt: With murexide as a chromophoric chelator, we performed the protocol followed for the evaluation of Cu^2+ chelating activities of the compounds using an adaptation of the method presented by Cesari et al. and Wu et al.. Using Equation (6), we calculated the copper chelation capacities of the 5a–d and 6a–d compounds:(6) copper chelation (%)=(A485/A520)control−(A485/A520)sample/(A485/A520)control×100
The evaluation of the Cu^2+ chelation activity of compounds was made based on the competition for Cu^2+ with murexide. The chelating activity of compounds for the cupric ions found in the current assay is significant for the pyrogallol derivatives, being quite close to EDTA-Na2.

Test [8] can be described thus: NO˙ radical scavenging assay (Griess reaction). Conditions: PBS pH 7.4, sodium nitroprusside. Here is the method: The scavenging of the NO˙ radical was performed by applying previously reported protocols. The in vitro protocol describes the decomposition of sodium nitroprusside in phosphate buffered saline (PBS) at pH = 7.4. The NO˙ radicals would be involved in a Griess reaction if they were not captured by the tested compounds. This reaction results from the formation of an azo dye, with maximum absorption at 546 nm. This azo dye is formed from sulfanilic acid and naphthyl ethylenediamine dichloride.
(In general: The Griess reaction detects nitrite, a stable product of nitric oxide.)

SMILES strings stand for the structures. Converted amounts (≈) assume the structure as drawn.

With `O=C1O[C@H]([C@@H](O)CO)C(O)=C1O` [Ascorbic acid, reference compound], the IC50 in test [1] came out at 11.4 µM; in test [2], 16.1 µM. In addition, the “% of ABTS˙^+ Scavenging” value in test [1] (0.83 µg/mL) was 60.97%; in test [1] (1.67 µg/mL) it was 73.24%; in test [1] (3.33 µg/mL), 87.73%; in test [1] (4.99 µg/mL) it was “+ (+ represents more than 95%)”; in test [1] (6.66 µg/mL) it was “+ (+ represents more than 95%)”; in test [1] (9.99 µg/mL) it was “+ (+ represents more than 95%)”. For the same compound, the “% of ABTS˙^+ Scavenging” value in test [1] (13.32 µg/mL) is “+ (+ represents more than 95%)”. Further, the “IC50 (DPPH˙ scavenging)” value in test [2] turned out to be 2.83 µg/mL (≈ 16.1 µM). Besides, the “% of DPPH˙ Scavenging” value in test [2] (1.25 µg/mL) worked out at 35.11%; in test [2] (2.5 µg/mL) it was 47.45%; in test [2] (3.75 µg/mL) it was 55.71%; in test [2] (5 µg/mL), 64.21%; in test [2] (7.5 µg/mL), 79.16%; in test [2] (10 µg/mL) it was 94.39%. Moreover, the “% of DPPH˙ Scavenging” value in test [2] (12.5 µg/mL) and in test [2] (15 µg/mL) was “+ (+ represents more than 95%)” throughout.

For `COc1cccc2c1C(=O)c1c(O)c3c(c(O)c1C2=O)C[C@@](O)(C(=O)CO)C[C@@H]3O[C@H]1C[C@H](N)[C@H](O)[C@H](C)O1` [Doxorubicin, reference compound], the IC50 in test [3] is 0.54 µg/mL; in test [4], 0.74 µg/mL; in test [5] it was above 7.5 µg/mL.

For `O=C([O-])CN(CCN(CC(=O)[O-])CC(=O)O)CC(=O)O.[Na+].[Na+]` [EDTA-Na2, reference compound], the “Ferrous ions Chelation Capacity (%)” value in test [6] (17.70 µg/mL) is listed as 1.32%; in test [6] (20.59 µg/mL), 20.59%; in test [6] (29.41 µg/mL), 42.89%; in test [6] (44.11 µg/mL), 95.10%; in test [6] (58.82 µg/mL), “+ (+ represents more than 95%)”; in test [6] (88.23 µg/mL) it was “+ (+ represents more than 95%)”. Besides, the “Ferrous ions Chelation Capacity (%)” value in test [6] (117.64 µg/mL), in test [6] (257.46 µg/mL) and in test [6] (343.28 µg/mL) was “+ (+ represents more than 95%)” throughout. For the same compound, the entries for the “Cupric ions Chelation Capacity (%)” value in test [7] (3.36 µg/mL), in test [7] (8.40 µg/mL) and in test [7] (16.80 µg/mL) were 10.39%, 22.68% and 44.51%, respectively.

For `O=C(O)c1cc(O)ccc1O` [Gentisic acid, reference compound], the “% of NO˙ Scavenged” value in test [8] is on record as 48.14%.

Consider `Cc1c(C)c2c(c(C)c1O)CCC(C)(C(=O)O)O2` (stereo not shown) [Trolox, reference compound], for which the IC50 in test [1] was 18.6 µM; in test [2], 18.7 µM. Moreover, the “% of ABTS˙^+ Scavenging” value in test [1] (0.83 µg/mL) is listed as 38.66%; in test [1] (1.67 µg/mL), 53.16%; in test [1] (3.33 µg/mL), 66.54%; in test [1] (4.99 µg/mL), 94.57%; in test [1] (6.66 µg/mL), “+ (+ represents more than 95%)”; in test [1] (9.99 µg/mL) it was “+ (+ represents more than 95%)”. Besides, in test [1] (13.32 µg/mL), the “% of ABTS˙^+ Scavenging” value was “+ (+ represents more than 95%)”. The “IC50 (DPPH˙ scavenging)” value in test [2] was 4.68 µg/mL (≈ 18.7 µM). Besides, the “% of DPPH˙ Scavenging” value was found to be 17.01% in test [2] (1.25 µg/mL); 28.53% in test [2] (2.5 µg/mL); 40.42% in test [2] (3.75 µg/mL); 53.87% in test [2] (5 µg/mL); 75.85% in test [2] (7.5 µg/mL); 94.85% in test [2] (10 µg/mL). Also, the “% of DPPH˙ Scavenging” value in test [2] (12.5 µg/mL) and in test [2] (15 µg/mL) was “+ (+ represents more than 95%)” each time.
